Test results published in article PMC9381536, “Non-apoptotic cell death induction via sapogenin based supramolecular particles” (Scientific Reports, 2022).
pIC50: −log10 of the molar value.

Experiments:
[1] = system: HCC1937; assay: LDH (lactate dehydrogenase) releasing assay; assay type: cell-based, Human; settings: LDH release and immunoblotting
Description: Figure 5 The cytotoxic activity of analogs depends on particle formation like AG-08. […] The level of released LDH was calculated as fold change relative to vehicle. […] After 24 h, cell viability was measured. […] Cell viability after 24 h was measured. The reported values correspond to mean values ± standard deviation (± s.d) of three experiments. ***p < 0.001, ****p < 0.0001.
LDH-Cytotoxicity Colorimetric Assay Kit II (Biovision) was used to detect LDH releasing. Briefly, HCC1937 were seeded on 96 well plate. After treatment with compounds, cells were centrifuged at 600×g for 10 min. 10 µl supernatant were transferred into clean 96 well plate and added into 100 µl LDH Reaction Mix. Following 30 min incubation at room temperature, 10 µl stop solution were added, and absorbance was measured at 450 nm (Varioscan, Thermo Fisher Scientific, US).

[2] = Measurement of particle diameter via Zeta Sizer; assay type: physicochemical; settings: PBS, DLS
Description: AG-08 was dissolved in DMSO a 1000-fold concentrated stock and added into the filtered PBS. Then particle diameter was immediately measured via zeta-sizer (DLS–Particulate Systems). Measurement was repeated in triplicate.

[3] = system: HCC1937 cells; assay: Cell viability with Tween 20 blocking particle formation; assay type: cell-based, Human; settings: HCC1937, 24 h
Description: Figure 1 AG-08 mediated cytotoxicity relies on the supramolecular structures. (A) Structure of AG-08. (B) The scanning transmission electron micrograph of 16 µM AG-08 in PBS. Figure is a representative image of stained sample with uranyl acetate (5683 × magnification; scale bar 600 nm). (C) After 3 h incubation of Nile red solution with AG-08 or AG, fluorescence intensity of Nile red was measured. (D) AG-08, Staurosporine (Sta) or vehicle samples prepared in the cell condition medium was filtrated by 220 nm filter and HCC1937 cells were exposed to the filtrates. After 24 h, the viability of cells was measured and represented as a percentage of that of the vehicle control. The error bars represent mean value ± s.d. (n = 3). *p < 0.05, **p < 0.005, ***p < 0.001. […] Cell viability was detected after 24 h incubation. […]
To verify that the activity of AG-08 arises from its supramolecular structures, freshly prepared AG-08 solutions were filtered using 220 nm-filters to remove AG-08 supramolecular particles from medium, and the filtrates were analyzed for their cytotoxicity. […]
Figure 5 The cytotoxic activity of analogs depends on particle formation like AG-08. […] The level of released LDH was calculated as fold change relative to vehicle. […] After 24 h, cell viability was measured. […] Cell viability after 24 h was measured. […]

[4] = Cytotoxic activity after freeze–thaw cycle; assay type: cell-based; settings: solution, no change in chemical structure
[5] = system: MCF7; assay: Cytotoxicity analysis (WST-1); assay type: cell-based; settings: Homo sapiens, MCF7, 48 h
Description: (§1) HCC1937 (Human breast cancer line), HeLa (Human […]), A549 (Human lung adenocarcinoma), MRC-5 (Human lung fibroblasts), MCF7 (Human breast cancer cells), A549 (human lung carcinoma) were obtained from American Type Culture Collection and maintained as exponentially growing monolayers by culturing according to the supplier’s instructions. MCF7, HeLa, MRC-5, and A549 cell lines were cultured and routinely passaged in DMEM media containing 10% FBS, while HCC1937 cell lines were propagated in RPMI 1640 containing 10% FBS.
(§2) Following the treatment with compounds or vehicle for 48 h, the 10% WST-1 (Roche, Switzerland) in medium was replaced in each 96 well. After 4 h incubation with WST-1 reagent at 37 °C and 5% CO2, the absorbance was measured using a microplate reader at 440 nm (Varioscan, Thermo Fisher Scientific, US). Graph Pad Prism 5 (San Diego, CA, US.) was used to calculate the IC50, which represents the concentration of compounds that is required for 50% inhibition in comparison to the vehicle-treated controls. The experiments were repeated three times independently.

[6] = system: MRC-5; assay: Cytotoxicity analysis (WST-1); assay type: cell-based; settings: Homo sapiens, MRC5, MRC-5 normal cell line, 48 h
Description: as §1, §2

[7] = system: HeLa; assay: Cytotoxicity analysis (WST-1); assay type: cell-based; settings: Homo sapiens, 48 h
Description: as §1, §2

[8] = Nile red staining (particle formation); assay type: physicochemical; settings: Nile red, PBS, 3 h
Description: AG-08 and AG were dissolved in DMSO as a 1000-fold concentrated stock added into the filtered PBS, which contain 2.5 µM Nile red. After 3 h incubation at room temperature, the fluorescence intensity was measured with a microplate reader (550 nm for excitation and 635 nm for the emission wavelength) (Varioscan, Thermo Fisher Scientific, US).

## Cc1ccc(S(=O)(=O)OC2CCC3(C)C4=CCC5(C)C(C6(C)CCC(C(C)(C)O)O6)C(O)CC5(C)C4C=CC3C2(C)C)cc1 (stereo not drawn) [AG-08]
[1]
  mode of cell death: induced necrotic cell death
[2]
  Diameter of supramolecular structures (hydrodynamic): 153.2 ± 4.6
  polydispersity index: 0.218
[3]
  cell death in presence of Tween 20 (1:40,000): inhibited
[4]
  cytotoxic activity after one freeze–thaw cycle: lost
[5]
  pIC50: 5.42
[6]
  pIC50: 5.59
[7]
  pIC50: 5.24
[8]
  critical assembly concentration: approximately 2 µM
